{
  "source": "paper PMC9921896",
  "about": "(Molecules, 2023)",
  "origin": "cited, not measured here",
  "key": {"[1]": {"conditions": "cited from earlier work"}, "[2]": {"conditions": "cited from earlier work", "remark": "listed apart in the source"}, "estrogenicity": {"system": "estrogenicity", "conditions": "cited from earlier work"}},
  "data": [
    {"smiles": "CC(C)(c1ccc(O)cc1)c1ccc(O)cc1", "note": "[BPA, Bisphenol A]", "values": [
      {"measurement": "highest dose level with no negative impact on the health", "setting": "[1]; CLARITY-BPA core study", "result": "25,000 μg kg bw^−1 day^−1"},
      {"measurement": "lowest-observed-adverse-effect level (LOAEL)", "setting": "[1]; suggested from low-dose effects", "result": "2.5 μg (kg bw)^−1 day^−1"},
      {"measurement": "new TDI (draft opinion)", "setting": "[2]; EFSA draft opinion", "result": "0.04 ng (kg bw)^−1 day^−1"},
      {"measurement": "t-TDI", "setting": "[2]; set by EFSA in 2015", "result": "4 μg (kg bw)^−1 day^−1"}
    ]},
    {"smiles": "CC(C)(c1ccc(O)cc1)c1ccc(O[C@@H]2O[C@H](C(=O)O)[C@@H](O)[C@H](O)[C@H]2O)cc1", "note": "[BPA-based Glucuronide metabolite, reference compound]", "values": [
      {"measurement": "estrogenicity", "setting": "estrogenicity; BPA glucuronide", "result": "non-estrogenic"}
    ]},
    {"smiles": "C=C(CC(C)(C)c1ccc(O)cc1)c1ccc(O)cc1", "note": "[MBP, 4-methyl-2,4-bis(p-hydroxyphenyl) pent-1-ene, reference compound]", "values": [
      {"measurement": "estrogenicity relative to BPA", "setting": "estrogenicity; metabolite formed with rat liver S9 fraction", "result": "several-thousand-fold"}
    ]}
  ]
}
